From US12679827B2, “Pyrimidine compounds and their pharmaceutical uses” (National Health Research Institutes, priority 2020, dated 2026)

Experiments:
[1] = test system: NCI-H82; assay: Small-cell-lung cancer cell proliferation inhibition assay (PrestoBlue), NCI-H82; format: cell-based; settings: Homo sapiens, cMYC amplified SCLC cells, 72 hours
Method: (§1) Small cell lung cancer cells NCI-H82 (ATCC HTB-175, cMYC amplified), NCI-H446 (ATCC® HTB-171, cMYC amplified), and NCI-H69 (ATCC® HTB-119, MYCN amplified) were seeded at the density of 5000-10000 cells per well in 96-well plates. After 24 hours, the cancer cells were treated with each compound at various concentrations (0-10 μM) and then incubated for another 72 hours. IC50 values were computed based on duplicated 8-point titration.

[2] = test system: NCI-H446; assay: Small-cell-lung cancer cell proliferation inhibition assay (PrestoBlue), NCI-H446; format: cell-based; settings: Homo sapiens, cMYC amplified SCLC cells, 72 hours
Method: as §1

[3] = test system: NCI-H69; assay: Small-cell-lung cancer cell proliferation inhibition assay (PrestoBlue), NCI-H69; format: cell-based; settings: Homo sapiens, MYCN amplified SCLC cells, 72 hours
Method: as §1

[4] = target: T1, human Aurora A (amino acids 123-401) (Homo sapiens, UniProt O14965); assay: Kinase-Glo Luminescent Kinase assay, in vitro inhibition of Aurora A kinase activity; format: biochemical; settings: recombinant GST-tagged Aurora A, 5.0 μM ATP, 37° C., 120 minutes
T1 construct: human Aurora A (amino acids 123-401) was expressed in Sf9 insect cells; GST; made in house; host or cells: Sf9 insect cells
T1 sequence (O14965 123-401): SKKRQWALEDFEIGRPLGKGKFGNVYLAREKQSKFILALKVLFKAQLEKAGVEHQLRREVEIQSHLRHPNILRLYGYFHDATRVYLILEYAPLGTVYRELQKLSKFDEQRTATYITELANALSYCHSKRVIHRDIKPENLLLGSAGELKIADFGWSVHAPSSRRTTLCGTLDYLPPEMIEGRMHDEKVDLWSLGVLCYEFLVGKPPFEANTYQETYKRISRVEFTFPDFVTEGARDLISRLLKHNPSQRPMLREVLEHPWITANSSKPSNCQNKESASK
Method: Recombinant glutathione S-transferase (GST)-tagged N-terminal truncated human Aurora A (amino acids 123-401) was expressed in Sf9 insect cells and then purified by glutathione affinity chromatography to afford recombinant Aurora A. Recombinant Aurora A (150 ng) was reacted with each test compound (100 nM) in 50 μL of 50 mM Tris-HCl pH 7.4, 10 mM NaCl, 10 mM MgCl2, 0.01% bovine serum albumin, 5.0 μM ATP, 1 mM dithiothreitol, 15 μM tetra(-LRRASLG) peptide at 37° C. for 120 minutes. Then, to the reaction was added 50 μL of Kinase-Glo Plus Reagent. The resulting mixture was incubated at 25° C. for 20 minutes. A 70 μL aliquot of the mixture was transferred to a black microliter plate. Luminescence was measured using a Wallac Vector 1420 multilabel counter (PerkinElmer, USA).

Row | Structure (SMILES) | IC50 [1] | IC50 [2] | IC50 [3] | IC50 [4]
1 | CCN1CCN(c2cc(Nc3cc(C)n(C(=O)OCC(C)C)n3)nc(N[C@H]3CCN(C(=O)c4ccc(Cl)cc4F)C3)n2)CC1 [Compound 79] | < 1000 nM | < 1000 nM | < 1000 nM | 
2 | CCC(=O)n1nc(Nc2cc(N3CCN(CC)CC3)nc(N[C@H]3CCN(C(=O)c4ccc(Cl)cc4F)C3)n2)cc1C [Compound 72] | < 1000 nM | < 1000 nM | < 1000 nM | 
3 | CCN1CCN(c2cc(Nc3cc(C)n(C(=O)OC(C)(C)C)n3)nc(N[C@H]3CCN(C(=O)c4ccc(Cl)cc4F)C3)n2)CC1 [Compound 81] | < 1000 nM | < 1000 nM | < 1000 nM | 
4 | Cc1cc(Nc2cc(N3CCN(CC(F)(F)F)CC3)nc(N[C@H]3CCN(C(=O)c4ccc(Cl)cc4F)C3)n2)n[nH]1 [Compound 14] | < 1000 nM | < 1000 nM | < 1000 nM | < 100 nM
5 | CCN1CCN(c2cc(Nc3cc(C)n(COC(=O)C(C)(C)C)n3)nc(N[C@H]3CCN(C(=O)c4ccc(Cl)cc4F)C3)n2)CC1 [Compound 75] | < 1000 nM | < 1000 nM | < 1000 nM | 
6 | Cc1cc(Nc2cc(N3CCN(C4COC4)CC3)nc(N[C@H]3CCN(C(=O)c4ccc(Cl)cc4F)C3)n2)n[nH]1 [Compound 16] | < 1000 nM | < 1000 nM | < 1000 nM | < 100 nM
7 | Cc1cc(Nc2cc(N3C[C@H](C)NC[C@H]3C)nc(N[C@H]3CCN(C(=O)c4ccc(Cl)cc4F)C3)n2)n[nH]1 [Compound 9] | < 1000 nM | < 1000 nM | < 1000 nM | 
8 | Cc1cc(Nc2cc(N3C[C@@H](C)N(C)[C@@H](C)C3)nc(N[C@H]3CCN(C(=O)c4ccc(Cl)cc4F)C3)n2)n[nH]1 [Compound 15] | < 1000 nM | < 1000 nM | < 1000 nM | < 100 nM
9 | Cc1cc(Nc2cc(N3CCC(N(C)C)CC3)nc(N[C@H]3CCN(C(=O)c4cccc(Cl)c4F)C3)n2)n[nH]1 [Compound 21] | < 1000 nM | < 1000 nM | < 1000 nM | < 100 nM
10 | CCN1CCN(c2cc(Nc3cc(C)nn3C(=O)OCC(C)C)nc(N[C@H]3CCN(C(=O)c4ccc(Cl)cc4F)C3)n2)CC1 [Compound 78] | < 1000 nM | < 1000 nM | < 1000 nM | 
11 | CCN1CCN(c2cc(Nc3cc(C)nn3C(=O)OC(C)(C)C)nc(N[C@H]3CCN(C(=O)c4ccc(Cl)cc4F)C3)n2)CC1 [Compound 80] | < 1000 nM | < 1000 nM | < 1000 nM | 
12 | CCN1CCN(c2cc(Nc3cc(C)[nH]n3)nc(N[C@H]3CCN(C(=O)c4nc(Cl)ccc4F)C3)n2)CC1 [Compound 50] | < 1000 nM | < 1000 nM |  | < 100 nM
13 | CCN1CCN(c2cc(Nc3cc(C)[nH]n3)nc(N[C@H]3CCN(S(=O)(=O)c4ccc(Cl)cc4C)C3)n2)CC1 [Compound 62] | < 1000 nM | < 1000 nM |  | < 100 nM
14 | CCN1CCN(c2cc(Nc3cc(C)[nH]n3)nc(N[C@H]3CCN(C(=O)c4ccc(Cl)nc4Cl)C3)n2)CC1 [Compound 54] | < 1000 nM | < 1000 nM |  | < 100 nM
15 | CCN1CCN(c2cc(Nc3cc(C)[nH]n3)nc(N[C@H]3CCN(C(=O)c4cc(Cl)ccc4F)C3)n2)CC1 [Compound 37] | < 1000 nM | < 1000 nM |  | < 100 nM
16 | COCCN(C)c1cc(Nc2cc(C)[nH]n2)nc(N[C@H]2CCN(C(=O)c3ccc(Cl)cc3F)C2)n1 [Compound 17] | < 1000 nM | < 1000 nM |  | < 100 nM
17 | CCN1CCN(c2cc(Nc3cc(C)n(C(=O)C(C)(C)C)n3)nc(N[C@H]3CCN(C(=O)c4ccc(Cl)cc4F)C3)n2)CC1 [Compound 74] | < 1000 nM | < 1000 nM | < 1000 nM | 
18 | CCN1CCN(c2cc(Nc3cc(C)nn3C(=O)C(C)(C)C)nc(N[C@H]3CCN(C(=O)c4ccc(Cl)cc4F)C3)n2)CC1 [Compound 73] | < 1000 nM | < 1000 nM | < 1000 nM | 
19 | CCN1CCN(c2cc(Nc3ncc(C#N)s3)nc(N[C@H]3CCN(C(=O)c4ccc(Cl)cc4F)C3)n2)CC1 [Compound 1] | < 1000 nM | < 1000 nM |  | < 100 nM
20 | COCCN1CCN(c2cc(Nc3cc(C)[nH]n3)nc(N[C@H]3CCN(C(=O)c4ccc(Cl)cc4F)C3)n2)CC1 [Compound 13] | < 1000 nM |  | < 1000 nM | < 100 nM
21 | Cc1cc(Nc2cc(N3C[C@@H](C)N[C@@H](C)C3)nc(N[C@H]3CCN(C(=O)c4ccc(Cl)cc4F)C3)n2)n[nH]1 [Compound 10] | < 1000 nM | < 1000 nM | < 1000 nM | 
22 | CC(=O)N1CCN(c2cc(Nc3cc(C)[nH]n3)nc(N[C@H]3CCN(C(=O)c4ccc(Cl)cc4F)C3)n2)CC1 [Compound 12] | < 1000 nM | < 1000 nM |  | < 100 nM

Next, values leading:

Row | IC50 [1] | IC50 [2] | IC50 [3] | IC50 [4] | Structure (SMILES)
23 | < 1000 nM | < 1000 nM | < 1000 nM |  | COC1CCN(c2cc(Nc3cc(C)[nH]n3)nc(NC3CCN(C(=O)c4cccc(Cl)c4F)CC3)n2)CC1 [Compound 105]
24 |  | < 1000 nM | < 1000 nM | < 100 nM | COC1CN(c2cc(Nc3cc(C)[nH]n3)nc(NC3CCN(C(=O)c4cccc(Cl)c4F)CC3)n2)C1 [Compound 99]
25 | < 1000 nM | < 1000 nM | < 1000 nM | < 100 nM | Cc1cc(Nc2cc(N3CCN(C4COC4)CC3)nc(NC3CCN(C(=O)c4cccc(Cl)c4F)CC3)n2)n[nH]1 [Compound 103]
26 | < 1000 nM | < 1000 nM | < 1000 nM | < 100 nM | Cc1cc(Nc2cc(N3CCN(CC(F)(F)F)CC3)nc(NC3CCN(C(=O)c4cccc(Cl)c4F)CC3)n2)n[nH]1 [Compound 106]
27 | < 1000 nM | < 1000 nM | < 1000 nM | < 100 nM | Cc1cc(Nc2cc(N3C[C@@H](C)N(C)[C@@H](C)C3)nc(NC3CCN(C(=O)c4cccc(Cl)c4F)CC3)n2)n[nH]1 [Compound 100]
28 | < 1000 nM | < 1000 nM | < 1000 nM | < 100 nM | Cc1cc(Nc2cc(N3CCN(C)CC3)nc(NC3CCN(C(=O)c4cccc(Cl)c4F)CC3)n2)n[nH]1 [Compound 90]
29 | < 1000 nM |  | < 1000 nM | < 100 nM | COC[C@@H]1CCCN1c1cc(Nc2cc(C)[nH]n2)nc(NC2CCN(C(=O)c3cccc(Cl)c3F)CC2)n1 [Compound 104]
30 | < 1000 nM | < 1000 nM | < 1000 nM | < 100 nM | Cc1cc(Nc2cc(N3CC[C@H](N(C)C)C3)nc(NC3CCN(C(=O)c4cccc(Cl)c4F)CC3)n2)n[nH]1 [Compound 96]
31 | < 1000 nM | < 1000 nM | < 1000 nM | < 100 nM | CC(=O)N1CCN(c2cc(Nc3cc(C)[nH]n3)nc(NC3CCN(C(=O)c4cccc(Cl)c4F)CC3)n2)CC1 [Compound 93]
32 | < 1000 nM | < 1000 nM | < 1000 nM | < 100 nM | Cc1cc(Nc2cc(N3CCC(N(C)C)CC3)nc(NC3CCN(C(=O)c4cccc(Cl)c4F)CC3)n2)n[nH]1 [Compound 92]
33 | < 1000 nM | < 1000 nM | < 1000 nM | < 100 nM | Cc1cc(Nc2cc(N3CC[C@@H](N(C)C)C3)nc(NC3CCN(C(=O)c4cccc(Cl)c4F)CC3)n2)n[nH]1 [Compound 94]
34 | < 1000 nM | < 1000 nM | < 1000 nM | < 100 nM | COC[C@H]1CCCN1c1cc(Nc2cc(C)[nH]n2)nc(NC2CCN(C(=O)c3cccc(Cl)c3F)CC2)n1 [Compound 97]
35 | < 1000 nM | < 1000 nM | < 1000 nM |  | CCN1CCN(c2cc(Nc3cc(C)nn3C(=O)OCCOC)nc(N[C@H]3CCN(C(=O)c4ccc(Cl)cc4F)C3)n2)CC1 [Compound 82]
36 | < 1000 nM | < 1000 nM | < 1000 nM |  | CCOC(=O)n1nc(C)cc1Nc1cc(N2CCN(CC)CC2)nc(NC2CCN(C(=O)c3cccc(Cl)c3F)CC2)n1 [Compound 127]
37 |  | < 1000 nM | < 1000 nM | < 100 nM | COCCN1CCN(c2cc(Nc3cc(C)[nH]n3)nc(NC3CCN(C(=O)c4cccc(Cl)c4F)CC3)n2)CC1 [Compound 101]
38 | < 1000 nM | < 1000 nM | < 1000 nM |  | CCN1CCN(c2cc(Nc3cc(C)n(C(=O)OCCOC)n3)nc(N[C@H]3CCN(C(=O)c4ccc(Cl)cc4F)C3)n2)CC1 [Compound 83]
39 | < 1000 nM | < 1000 nM | < 1000 nM | < 100 nM | Cc1cc(Nc2cc(N3C[C@@H](C)N[C@@H](C)C3)nc(NC3CCN(C(=O)c4cccc(Cl)c4F)CC3)n2)n[nH]1 [Compound 102]
